Measured values reported in a melting point compilation (Tetko et al.; mined from patent text by program, amines drawn as free bases though some values may be those of a salt).

| Compound | melting point [°C] |
| --- | --- |
| CC(C)CCNC(=O)C(c1ccccc1)c1ccccc1 | 128 |
| COC(=O)c1c(Sc2nc(OC)cc(OC)n2)cccc1C(C)=O | 149 to 151 |
| O=C1c2cccc3c2N(CC3)c2ccc(Br)cc2N1CC#CCN1CCCC1 | 121 to 122 |
| O=C(O)Cc1[nH]nc2c1CCCC2 | 155 to 156 |
| Nc1ccc(I)cc1CO | 125 |
| CCN(CC)CC(O)c1cccc2ccoc12 (stereo not given) | 116 |
| CCOC(=O)c1ccc(O)cc1SC | 132 to 136 |
| O=C(NCCO[N+](=O)[O-])c1csc(C(=O)NCCO[N+](=O)[O-])n1 | 136 to 138 |
| CCN1C(=O)N(c2cccc(C#N)c2C(F)(F)F)C(=O)C1(C)COC(=O)C(C)C (stereo not given) | 85 |
| CCOC(=O)C(Cl)=Cc1cc(N(C(N)=S)c2cscc2C(=O)OC)ccc1Cl | 158 to 160 |
| CCCCN(CCCC)C(=O)Nc1ccccc1 | 82 |
| O=S1N=CC(NCc2ccncc2)=N1 (stereo not given) | 129 to 130 |
| CC(=O)C1CCC2C3CCC4CC(C)(O)CCC4(C)C3C(=O)CC12C (stereo not given) | 175 |
| C=C1CCC2C3CC=C4C=C(OC)CCC4(C)C3CCC12C (stereo not given) | 97 to 99 |
| C=CCOc1ccc2cc(C(=O)OCC)[nH]c2c1 | 89 to 91 |
| CN(C)CCNC(=O)c1c[nH]c(=S)n1C1CCc2c(F)cc(F)cc2C1 (stereo not given) | 125 |
| CCC(=O)Nc1cc(C(C)(C)C)on1 | 95 to 96 |
| CC(C)N1CCN(C(=O)OC2CCN(c3ccc(C(N)=O)cn3)CC2)CC1 | 200 to 204 |
| O=C(O)c1cc(S(=O)(=O)N2CCC(CCl)CC2)ccc1Cl | 175 to 177 |

| Compound | melting point [°C] |
| --- | --- |
| CC(C)(C)OC(=O)Nc1cc(N2CCC(OC3CCCCO3)CC2)c(-c2ccc(F)cc2)cc1[N+](=O)[O-] (racemic) | 144 to 146 |
| COc1ccc(C2CC(=O)OC(=O)C2)cc1 | 144 to 149 |
| CC(=O)NCc1ccc2[nH]cc(C=O)c2c1 | 182 to 184 |
| CCCC(C1CCCCC1)n1c(C(=O)OC)cnc1S (stereo not given) | 181 |
| CS(=O)(=O)Oc1ccc(-c2c3ccccc3c(I)c3sc4ccccc4c23)cc1 | 176 to 186 |
| CC(=O)NCC1CN(c2cc(F)c(N3CCN(C(=O)COC(=O)n4ccnc4)CC3)c(F)c2)C(=O)O1 (stereo not given) | 199 to 200 |
| Oc1ccc2c(c1)C13CCCCC1(Cc1ccccc1)C(C2)N(CC1CC1)CC3 (stereo not given) | > 280 |
| O=C(O)C1Cc2c(c(Cl)cc3c(-c4cccs4)noc23)O1 (stereo not given) | 249 to 251 |
| O=C(CCCN1CC=C(c2ccccc2)CC1)c1cccnc1 | 64 to 66 |
| COc1ccc(-c2cc3cc(F)c(F)cc3[nH]2)cc1NCc1ccc([N+](=O)[O-])cc1 | 181 to 182 |
| OC(CCCc1ccc(Cl)cc1)(Cc1ccc(Cl)cc1)c1ccc(OCc2ccc3ccccc3n2)cc1 (stereo not given) | 123 to 124 |
| C=Cc1cc(C)c(C(=O)N=C(N)N)cc1S(C)(=O)=O | 223 to 226 |
| N#CSc1cc([N+](=O)[O-])ccc1Cl | 103 |
| COc1ccc2c3c1OC1C(=O)C=CC4C(C2)N(C)CCC314 (stereo not given) | 177 to 180 |
| COc1ccc(C2=NNC(=O)CC2)cc1CO | 207 to 208 |
| COC(=O)c1ccc2oc(CCCCc3cc4cc(C(=O)OC)ccc4o3)cc2c1 | 130 to 131 |
| COc1cccc2c(=O)n3c(cc12)SCCC3 | 117 to 118 |
| Cc1nc2c([nH]1)CCCC2=O | 229 |
| Cc1cccc2nc3sc(Cl)cn3c(=O)c12 | 162 to 166 |

| Compound | melting point [°C] |
| --- | --- |
| O=C(O)COc1cccc2c1CCC(Cn1cc(C(c3ccccc3)c3ccccc3)ccc1=O)C2 (stereo not given) | 162 to 163 |
| O=Cc1ccc(O)c2oc3ccc([N+](=O)[O-])cc3c12 | > 270 |
| CCOc1ccc(-c2ccc3c(c2)C=C(C(=O)Nc2ccc(CN(C)C4CCC5(CC4)OCCO5)cc2)CCS3(=O)=O)cc1 | 220 to 223 |
| Nc1cc(Cl)cc2c1NCCC2=O | 142 to 144 |
| Cc1cc2ccc(CCCCCN3CCN(c4cccc(Cl)c4Cl)CC3)nc2[nH]c1=O | 157 to 158 |
| CC1=C(C)C(=O)C(C(CCCCCCC(=O)O)c2cccnc2)=C(C)C1=O (stereo not given) | 113 to 114 |
| O=C(O)c1cc(N2C(=O)C(c3ccccc3)=C(c3ccccc3)C2=O)ccc1O | 249 to 250 |
| COC(=O)C1=C(C)NC(C)=C(C(=O)OCCN2CCN(C(c3ccc(Cl)cc3)c3ccc(Cl)cc3)CC2)C1c1cccc(Cl)c1Cl (stereo not given) | 104 to 107 |
| CN(C)C1(c2cccc(F)c2)CCC(=CC(=O)NCCc2c[nH]c3ccccc23)CC1 (stereo not given) | 172 to 176 |
| COc1cc(OCCOC(C)C)cc2nc(-c3cc(C)nc(C)c3)[nH]c(=O)c12 | 188 to 189 |
| CCN(CC)CCOc1ccc(Nc2ncc3c(n2)N(C)C(=O)N(c2c(C)cccc2C)C3)cc1 | 58 |
| O=C(CC(=S)S)c1ccc(Oc2ccccc2)cc1 | 78 |
| CCCCc1ncc(/C(C)=C(\Cc2cccs2)C(=O)O)n1Cc1ccc(C#N)cc1 | 210 to 212 |
| c1ccc(C2=Nc3ccccc3-n3ccc4cccc2c43)cc1 | 128 to 136 |
| Cc1ccc(-c2cc(C(=O)O)c(=O)n(CC(C)C)n2)cc1F | 159 to 160 |
| C=CCn1c(-c2cccnc2)n[nH]c1=O | 120 to 125 |
| Cc1nc(NC(=O)c2ccc(-c3nn[nH]n3)cc2)sc1C(=O)NCc1ccccc1 | > 300 |
| Cc1cc(C)c2nc(NCCCN3CCOCC3)n(Cc3nc(C)ccc3O)c2c1 | 228 |
| CCNC(=O)c1c(Cl)ccc(Br)c1[Si](C)(C)C | 155 to 157 |

Results, then the compound that gave them:

| melting point [°C] | Compound |
| --- | --- |
| 226 to 228 | CC(CN(C)C)C(CNC(N)=O)(c1ccccc1)c1ccccc1 (stereo not given) |
| 194 to 196 | CC(C)c1ccnc(C(=O)c2[nH]c3cc(Cl)ccc3c2CC(=O)O)c1 |
| 80 to 84 | CN1C(=O)CC[C@]2(C)c3ccc(Sc4ncccc4[N+](=O)[O-])cc3CC[C@@H]12 |
| 68 to 72 | O=C1CCCC(=O)C1C(=O)c1ccc(OC(F)F)cc1Cl |
| 155 to 157 | O=C1C2CCCC2=Nc2ccccc2N1Cc1ccc(Cl)cc1 (stereo not given) |
| 56 to 58 | O=C(C(=Cc1cccc(C(F)(F)F)c1)C(=O)C1CC1)C1CC1 |
| 85 to 86 | O=S(=O)(F)c1ccc2ccccc2c1 |
| 152 to 153 | COc1ccccc1N=Nc1ncc[nH]1 |
| 191 to 192 | CS(=O)(=O)c1ccc(-c2cnn(CC(=O)c3ccc(F)cc3F)c(=O)c2-c2ccc(F)cc2)cc1 |
| 95 to 98 | Cc1ncnn1C[Si](C)(C)c1ccc(-c2ccccc2)cc1 |
| 78 to 79 | O=C(Cc1ccc(Cl)cc1Cl)c1cccnc1 |
| 208 | CC1(C)Oc2ccc(C(F)(F)F)cc2C(n2ccccc2=O)=C1CN(O)C(=O)C(F)(F)F |
| 155 to 158 | CN1CCN(c2ccc(Nc3nc(N)c(C(=O)c4c(F)cccc4C(F)(F)F)s3)cc2)CC1 |
| 138 to 139 | NOCc1cn(C(c2ccccc2)(c2ccccc2)c2ccccc2)cn1 |
| 180 to 182 | NC(=O)c1sc(-c2ccccc2)cc1N |
| 150 to 151 | CCOC(=O)C(C)(C)c1ccc(C2=NC(C)(C)Cc3cc(OC)c4c(c32)CC(C)(C)O4)cc1 |
| 88 to 89 | CCC(=O)Nc1nn(C)c2c1sc1ccccc12 |
| 228 | CC(C)c1ccc(C=CC(=O)c2ccc(O)c(CC(=O)O)c2)cc1 |
| 101 to 117 | CC(C)(C)OC(=O)c1cc(O[C@H]2CC[C@H](NC(=O)Nc3ccc(Cl)c(C(F)(F)F)c3)CC2)ccn1 |
| 186 to 188 | COc1cc2[nH]ccc2cc1OCCCN1CCC(c2noc3cc(F)ccc23)CC1 |
| 158 to 160 | COc1ccc(C(=O)c2cc3c(ccc4ccccc43)oc2=O)cc1 |
| 156 to 157 | CC(C)(C)OC(=O)Nc1ccc(-c2ccc(F)cc2)cc1NC(=O)CC(=O)c1sccc1C#N |

| melting point [°C] | Compound |
| --- | --- |
| 182 to 184 | COC(=O)[C@H]1CC[C@H](n2ccn(-c3ccc(C4(C)CCN(C(=O)C(F)(F)F)CC4)cc3)c2=O)CC1 |
| 78 to 80 | CCC(CC)N(Cc1ccc(C(=O)OC)cc1)S(=O)(=O)c1ccc(F)cc1 |
| 79.7 | COc1ccc(S(=O)(=O)N(C(=O)C(F)(F)F)c2ccc(Cl)cc2Cc2c(F)cccc2F)cc1OC |
| 170 to 172 | CC1(C)OC(=O)C(c2cccc3nnsc23)C(=O)O1 |
| 102 to 104 | COc1ccc(F)cc1C(C)(C)CC(O)(C(=O)O)C(F)(F)F (stereo not given) |
| 139 to 140 | CN1C(=O)C(c2ccc(OC(F)F)cc2)(c2ccc(F)c(OCCC=C(F)F)c2)N=C1N (stereo not given) |
| 174 | Cc1nccn2c(-c3ccnc(NCC(C)(C)CO)n3)c(-c3ccc(F)cc3F)nc12 |
| 155 to 156 | CCOC(=O)c1cc2c3ccccc3n(Cc3ccccc3)c2c(C)n1 |
| 112 to 114 | CCOc1cc(C(C)=O)ccc1OCCCN1CCC(c2noc3cc(F)ccc23)CC1 |
| 183 to 184 | COc1nnc2n1C=Cc1ccccc1C2c1ccccc1 (stereo not given) |
| 149 | CCCCn1ccc(N2CCC(c3ccccc3)CC2)c(Cl)c1=O |
| 162 to 164 | O=C1CC(=Cc2cccc3ccccc23)C(=O)O1 |
| 83 to 90 | CCCN(CCCNc1ncc(Cc2ccc(C)nc2)c(=O)[nH]1)c1ccccn1 |
| 74 to 75 | CCc1nc(-c2cccc(C)c2)c(-c2ccnc(NCC3CCCCC3)c2)s1 |
| 140 to 145 | CN1C(=O)CC[C@]2(C)c3ccc(Sc4nc5c(F)cccc5s4)cc3CC[C@@H]12 |
| 201 to 203 | COc1ccc(-c2nc3ccc(OC(F)(F)F)cc3[nH]2)c(OC)c1 |
| 220 to 221 | CNC1(c2ccccc2Cl)C(=O)N(S(=O)(=O)c2ccc([N+](=O)[O-])cc2)c2ccc(Cl)cc21 (stereo not given) |
| 116 | CC1(C)COc2ccc(C(F)(F)F)cc2C(O)(c2ccccn2)C1 (stereo not given) |
| 138 | O=S1(=O)c2cccc3cccc(c23)N1CCCCN1CCN(c2noc3ccccc23)CC1 |
| 196 to 197 | COc1ccc(-n2cnc3ccc(C(=O)NN)cc32)cc1 |
| 146 to 148 | COc1ccc(-c2nc3n(c2-c2ccc(OC)cc2)CCC3)cc1 |
